Measurements taken from patent publication US11291705B2, “Use of caspase-3 inhibitors and caspase-3 activators in the manufacture of medicament for treating cancer and wound healing” (Technion Research & Development Foundation Limited, priority 2016, dated 2022).

Assays:
[1] = system: integrin α6+CD34+ HFSCs, HaCaT keratinocytes and Hek293E3 cells; assay: Expansion of other cell types treated with caspase-3 inhibitors; type: cell-based; conditions: one treatment
Source text: In order to examine whether Caspase-3 affects the expansion of other cell types the present inventors isolated integrin α6^+CD34^+ HFSCs from second telogen mice.

[2] = system: integrin α6+CD34−EGFPhigh SGPZ cells; assay: Proliferation and expansion of isolated SGPZ cells treated with caspase-3 inhibitors; type: cell-based, mice; conditions: z-DEVD-fmk added initially
Description: Flow Cytometry—SGPZ cell isolation and FACS analysis were performed with K15-EGFP mice and CD34, integrin α6 and Sca1 antibodies. K15-GFP^high cells were isolated from ears and dorsal skin of 8-week old B6.Cg-Tg(Krt1-15-EGFP)2Cot/J mice.

[3] = system: 501A melanoma cell line; assay: Proliferation of melanoma cell line 501A; type: cell-based
Source text: (§1) FIGS. 14A-C depict inhibition of Caspase-3 attenuates proliferation of melanoma cells. […] FIG. 14C—Immunofluorescence of decreased Ki67^+ cells (green) after 4 days of Caspase-3 inhibition. Scale bars, 20 μm (FIG. 14C right panels), 100 μm (FIG. 14A, FIG. 14B panels).
(§2) In order to examine this hypothesis, the present inventors first investigated the effect of caspase-3 inhibition on the proliferation rate of melanoma cells. […] Similar results were also obtained when examining 4 additional cell types (HaCaT keratinocytes, Hek293E3, K15 SG progenitors and hair follicle stem cells) (FIGS. 10A-F).

[4] = system: B16F10 melanoma cells; assay: B16F10 melanoma cells in vitro: growth, Ki67, pYAP, α-Catenin; type: cell-based
Source text: FIG. 23D—A histogram depicting quantifications of 501-A total cells number after treatment with Z-DEVD-fink (SEQ ID NO: 71). FIG. 23E—Images depicting B16F10 melanoma cells stained for Ki67 (red), active cleaved Caspase-3 (green) and nuclear counterstain DAPI (blue). […] Insets are zoom in on specific cells, Denotation: CP3, Caspase-3. Scale bars: 100 μm. ** (P<0.01), *** (P<0.001).
FIG. 24A—Images depicting B16F10 melanoma cells stained for pYAP (red). […] FIG. 24D—Images depicting B16F10 melanoma cells stained for α-Catenin (green). […] FIG. 24E—Immunoblot analysis of proteins isolated from B16F10 melanoma cells using antibodies against pYAP, α-Catenin and α-Tubulin as control.

[5] = system: YAP target genes; assay: RT-PCR of YAP dependent target genes in treated HaCaT cells; type: cell-based; conditions: relative to DMSO treated cells
Description: RNA extraction, reverse transcription and real-time PCR (RT-PCR)—RNA was isolated using Trizol (Sigma) and up to 2 μg of RNA were subjected to cDNA synthesis (Applied Biosystems). Real time PCR was carried out using the PerfeCTa SYBR Green FastMix (Quanta), with gene-specific primers [RpLp0 [sequence] […] Amplicon levels were analysed in triplicate and quantitated relative to a standard curve comprising cDNA, and values normalized to levels of the housekeeping gene (Rplp0 or Gapdh). Reactions were: 3 minutes at 95° C., then 40 cycles of 10 seconds at 95° C. and 30 seconds at 60° C. with addition of melt curve step: 10 seconds at 95° C., and increments of 0.5° C. every 5 seconds between 65° C. to 95° C.

[6] = system: human melanoma cells; assay: GFP-infected human melanoma cells injected into recipient mice; conditions: mouse, in vivo
Description: FIG. 15A—Melanoma cell were injected into recipient mice. […] Representative image 6 days after first treatment. FIG. 15B—quantification of tumor development indicates inhibition of tumor size in response to caspase-3 inhibition. FIG. 15C—Extracted tumors were analyzed for proliferation using the Ki67 marker and the presence of GFP^+ melanoma cells. FIG. 15D—Tumors treated with the caspase-3 activator ABT-199 result in a dramatic increase in tumor mass. […] Scale bars, 20 μm.
Examination of the effect of caspase-3 inhibition on melanoma formation in vivo—For this aim human melanoma cells were stably infected with GFP. Cells were then injected into to recipient mice and the effect of administrating caspase-3 inhibitors was monitored.

[7] = system: sebaceous gland (SG); assay: Sebaceous gland (SG) size and cell proliferation in mice injected subcutaneously with caspase-3 inhibitors or activators; type: in vivo; conditions: eight week old mice, subcutaneous injection for 7 days
Description: Immunofluorescence—Skins were embedded in OCT, frozen, sectioned, and fixed in 4% paraformaldehyde. Tail samples were treated with 5 mM EDTA for 4 hours at 37° C. to separate skin epithelium from dermis and fixed in formal saline for 2 hours at room temperature. Dorsal samples were treated with 5 mM EDTA for 6 hours at 37° C. to separate skin epithelium from dermis and fixed in formal saline for 1 hour at room temperature. Samples were blocked for 2 hours in Blocking buffer consisting of 10% Goat serum, 2% BSA, 0.2% Triton-X. Primary antibodies were diluted in blocking buffer and tissue/sections were incubated overnight at 4° C. Whole mounts or sections were washed at least 3 times with PBS. Secondary antibodies were incubated for 1 hour at room temperature followed by 4 washes with PBS. The following primary antibodies were used: YAP (Rabbit, 1:100, Cell Signalling, Mouse 1:100 Santa Cruz), pYAP (Rabbit, 1:100 Cell Signalling), α-E-Catenin (Rabbit, 1:100, Cell Signalling), Ki67 (Rabbit, 1:100, Abcam; Rat, 1:100, eBioscience), CD34 (Rat, 1:100, eBioscience), K15 (Mouse, 1:100, Thermo, Chicken, 1:1000, Abcam), Sox9 (Rabbit, 1:100, Millipore, Goat, 1:50, Santa Cruz). Cleaved-Caspase-3 (Rabbit, 1:100, Cell signalling), Phalloidin (1:250, Life Technologies). TUNEL was performed using ApopTag TdT (Millipore). […] Analysis was performed on Zeiss LSM 880 confocal microscope.

[8] = system: excision wounds (1 cm^2) on dorsal skin; assay: Wound repair of full thickness excision wounds on dorsal skin; type: in vivo, mice
Source text: For all wound repair experiments, mice were sedated with isofluorane. Mice were shaved with electric clippers and treated topically with a hair removal cream for a few minutes (Nair). Full-thickness excision wounds (1 cm^2) were generated on the dorsal skins and monitored for wound coverage. PWI, mice were individually housed. At the desired time PWI, mice were euthanized with CO2 and the wounded skins were harvested and either embedded in OCT or prepared for whole mounts as described above or for protein extraction.
Inhibition of caspase-3 impairs wound repair—Since YAP is known to play a chief role in regeneration (34), the present inventors investigated whether in vivo inhibition of Caspase-3 affects the wound repair dynamic by modulating YAP activity. […] Full thickness excision wounds (1.0 cm^2) were generated on the dorsalbacks and monitored for wound coverage. In control mice, three days post wound infliction (PWI) the wound size was reduced by 60% while in Ivachtin and z-DEVD-fink (SEQ ID NO: 71) treated mice, it was reduced by only 10% and 20%, respectively (FIG. 5A and FIG. 5B).

[9] = system: YAP; assay: YAP localization and pYAP levels in HEK293 cells; type: cell-based
Description: (§3) Cell culture—The HaCaT and HEK293 cell lines were cultured in DMEM medium supplemented with 10% FBS, 1% P/S (Pen/Strep) and 1% L-glutamine. Integrin α6^+CD34^+ HFSCs and integrin α6^+CD34^−EGFP^high SGPZ cells were isolated and cultured in HFSC media on sustaining J2 feeder cells. Serum was chelated for a calcium concentration of 50 μM. […] Cells were fixed in 4% PFA for 10 minutes for immunofluorescence analysis or harvested for protein or RNA extraction.

[10] = system: α-Catenin; assay: α-Catenin levels in low confluent HaCaT cells; type: cell-based
Description: as §3
TUNEL was performed using ApopTag TdT (Millipore). […] Analysis was performed on Zeiss LSM 880 confocal microscope.
The levels of α-Catenin are known to be a critical factor in the regulation of YAP (27). In low confluent cells, diminished levels of α-Catenin serve as a mechanotransduction mechanism that instructs the nuclear translocation of YAP and drives proliferation (27, 33). […] The present inventors therefore examined the levels of α-Catenin both in vitro and in vivo, by employing both Western blot analysis and immunofluorescence.

[11] = system: 624-38 melanoma cell line; assay: Proliferation of melanoma cell line 624-38; type: cell-based
Source text: as §1, §2

[12] = system: YAP; assay: YAP nuclear translocation and pYAP levels in EGFPhigh SGPZ cells; type: cell-based, mice; conditions: immunoblot
Description: as §3
Given that Caspase-3 inhibition hindered cell number and proliferation in vitro the present inventors next examined whether this was mediated via YAP in EGFP^high SGPZ cells using K15^+ SGPZ cells. […] Similar findings as to effect of caspase-3 inhibition on YAP activation and proliferation were also obtained in HaCaT and Hek293E3 cells (FIGS. 3J-K, FIGS. 11B-F).

Substance: z-DEVD-fmk
- expansion of cells [1]: impaired the expansion
- cell number [2]: dramatically inhibited
- number of formed colonies [2]: dramatically inhibited
- cell proliferation and number [3]: dramatic decrease
- proliferative (Ki67) cells [4]: reduced levels of proliferative cells
- phosphorylated YAP-positive cells (pYAP+) ([4]; compared to DMSO): significant increases
- growth of B16F10 melanoma cells ([4]; continuous presence of inhibitor): hindered
- ErbB4 expression, downregulation [5]: 6 fold
- HOXA5 expression, decrease [5]: 2 fold
- HOXC13 expression, decrease [5]: 5 fold
- WTIP expression, downregulation [5]: 2 fold
- effect on tumor development, one inhibitor compared with the other [6]: stronger effect
- SG size [7]: decrease in SG size
- de novo HF regeneration from the wound bed ([8]; 20 and 30 days PWI): inhibited
- wound closure ([8]; FIGS. 19A-F): significant decrease
- cells positive for nuclear YAP in the wound border ([8]; mouse, in vivo): Decreased nuclear YAP
- wound size reduced by ([8]; three days post wound infliction, injected from 2 days prior to wounding): 20%
- nuclear YAP localization [9]: Decreased nuclear YAP localization
- pYAP levels ([9]; Western blot): increased pYAP levels
- levels of α-Catenin [10]: increased levels
- cell proliferation and number [11]: dramatic decrease
- levels of pYAP [12]: increased pYAP levels
